Values after ≈ are worked out from the molar mass of the structure shown. Where two headings read alike, the source gives them in different places. Where a SMILES comes first, the peptide text is derived from it.
Tests used:
E. coli DHα5 = type: cell-based, Escherichia coli
P. aeruginosa PAO1 = type: cell-based, Pseudomonas aeruginosa
P. gingivalis W50 = type: cell-based, Porphyromonas gingivalis
[1] = target: T1, LPS-binding protein (LBP) (Homo sapiens, UniProt P18428); test: LPS binding to LPS-binding protein; conditions: LPS + 180–200 μg/ml GL13K; mean ± SEM, N=3
T1 sequence (P18428 26-481): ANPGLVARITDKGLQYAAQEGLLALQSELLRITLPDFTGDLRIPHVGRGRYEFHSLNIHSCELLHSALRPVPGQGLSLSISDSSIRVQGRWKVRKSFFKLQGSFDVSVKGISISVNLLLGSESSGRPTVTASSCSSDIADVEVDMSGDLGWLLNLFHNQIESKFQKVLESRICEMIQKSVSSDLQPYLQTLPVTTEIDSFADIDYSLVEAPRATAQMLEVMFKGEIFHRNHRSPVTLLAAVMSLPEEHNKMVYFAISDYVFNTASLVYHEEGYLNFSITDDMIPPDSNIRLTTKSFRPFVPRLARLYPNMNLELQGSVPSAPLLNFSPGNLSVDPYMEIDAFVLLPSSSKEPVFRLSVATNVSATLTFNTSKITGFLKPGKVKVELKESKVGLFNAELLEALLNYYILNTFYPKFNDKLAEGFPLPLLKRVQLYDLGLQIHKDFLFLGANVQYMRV

red blood cells [2] = test system: red blood cells
red blood cells [3] = conditions: cited from earlier work
E. coli = type: cell-based, Escherichia coli; conditions: 50% saliva (45% in legend) in PBS, 2 hours, 35°C
[4] = test system: P. gingivalis (53977, DPG3, W50); test: Bacterial killing assay; type: cell-based, Porphyromonas gingivalis; conditions: three strains, 200 μg/ml peptide, 2 ½ hours, 35°C, CFU

Compound	MIC (E. coli DHα5) [µg/mL]	MIC, 50% saliva (E. coli DHα5) [µg/mL]	MIC (P. aeruginosa PAO1) [µg/mL]	MIC (P. gingivalis W50; W50) [µg/mL]	Reduction of CFU / bactericidal activity in the presence of saliva (E. coli)	Bactericidal activity [4]	further results
CC[C@H](C)[C@H](NC(=O)[C@H](CCC(N)=O)NC(=O)CN)C(=O)N[C@H](C(=O)N[C@@H](CC(N)=O)C(=O)N[C@@H](CC(C)C)C(=O)N[C@@H](CCCCN)C(N)=O)[C@@H](C)CC [GK7NH2] (H-GQIINLK-NH2)	>200	>167	>167	>167	–	–	–
CC[C@H](C)[C@H](NC(=O)[C@H](CCCCN)NC(=O)CN)C(=O)N[C@H](C(=O)N[C@@H](CCCCN)C(=O)N[C@@H](CC(C)C)C(=O)N[C@@H](CCCCN)C(=O)N[C@@H](C)C(=O)N[C@@H](CO)C(=O)N[C@@H](CC(C)C)C(=O)N[C@@H](CCCCN)C(=O)N[C@@H](CC(C)C)C(=O)N[C@@H](CC(C)C)C(N)=O)[C@@H](C)CC [GL13K] (H-GKIIKLKASLKLL-NH2)	5 (≈ 3.51 µM)	50 (≈ 35.1 µM)	–	–	–	–	LBP binding of LPS relative to LPS alone (100%) [1]: 45.3%±9.7% (N=3); Hemagglutination (red blood cells [2]): did not cause hemagglutination
CC[C@H](C)[C@H](NC(=O)[C@H](CCC(N)=O)NC(=O)CN)C(=O)N[C@H](C(=O)N[C@@H](CC(N)=O)C(=O)N[C@@H](CC(C)C)C(=O)N[C@@H](CCCCN)C(=O)N[C@@H](C)C(=O)N[C@@H](CO)C(=O)N[C@@H](CC(C)C)C(=O)N[C@@H](CC(=O)O)C(=O)N[C@@H](CC(C)C)C(=O)N[C@@H](CC(C)C)C(N)=O)[C@@H](C)CC [GL13NH2] (H-GQIINLKASLDLL-NH2)	>200	–	>167	>167	–	–	Hemagglutination (caused, implied by contrast with GL13K) (red blood cells [3]): hemagglutination
CC[C@H](C)[C@H](NC(=O)[C@H](CCCCN)NC(=O)[C@H](CCC(=O)O)NC(=O)[C@H](CCCCN)NC(=O)[C@H](CO)NC(=O)[C@H](CCCCN)NC(=O)[C@H](CCCNC(=N)N)NC(=O)[C@H](Cc1ccccc1)NC(=O)[C@H](Cc1ccccc1)NC(=O)[C@H](CC(=O)O)NC(=O)CNC(=O)[C@H](CC(C)C)NC(=O)[C@@H](N)CC(C)C)C(=O)NCC(=O)N[C@@H](CCCCN)C(=O)N[C@@H](CCC(=O)O)C(=O)N[C@@H](Cc1ccccc1)C(=O)N[C@@H](CCCCN)C(=O)N[C@@H](CCCNC(=N)N)C(=O)N[C@H](C(=O)N[C@H](C(=O)N[C@@H](CCC(N)=O)C(=O)N[C@@H](CCCNC(=N)N)C(=O)N[C@H](C(=O)N[C@@H](CCCCN)C(=O)N[C@@H](CC(=O)O)C(=O)N[C@@H](Cc1ccccc1)C(=O)N[C@@H](CC(C)C)C(=O)N[C@@H](CCCNC(=N)N)C(=O)N[C@@H](CC(N)=O)C(=O)N[C@@H](CC(C)C)C(=O)N[C@H](C(=O)N1CCC[C@H]1C(=O)N[C@@H](CCCNC(=N)N)C(=O)N[C@H](C(=O)N[C@@H](CCC(=O)O)C(=O)N[C@@H](CO)C(=O)O)[C@@H](C)O)C(C)C)[C@@H](C)CC)C(C)C)[C@@H](C)CC [LL-37]	–	–	–	–	less than 90%	killed	MIC (P. gingivalis W50; broth dilution in Pg broth, 10^4 CFU, OD 570 nm, seven independent experiments): 25 µg/mL (≈ 5.56 µM)
polymyxin B	–	–	–	–	retained bactericidal activity	ineffective	–

Source: paper PMC3356437 (Peptides, 2012)
